Legend:
[1] = Stability test: storage at 30° or 37° C. for 12 months, amount of therapeutic agent remaining assayed at 2 and 12 months; assay type: physicochemical
[2] = cited from earlier work
[3] = Stability in the presence of acid or of polyethylene glycol (general statements, no test described); assay type: physicochemical

% remaining after 2 months at 37° C. [1]: Dec
% remaining after 12 months at 30° C. [1]: Dec
% remaining after 12 months at 37° C. [1]: Dec
% remaining after 2 months at 30° C. ([1]; storage, 1460 h): 78%
stability in the presence of polyethylene glycol, or a derivative thereof [3]: improved stability
SMILES: C/C(=C\C(=O)OCCCCCCCCC(=O)O)C[C@@H]1OC[C@H](C[C@@H]2O[C@H]2[C@@H](C)[C@H](C)O)[C@@H](O)[C@H]1O [Pseudomonic acid]
stability in the presence of acid [2]: tend to undergo a rearrangement reaction in the presence of acid

— patent US4524075A, “Pharmaceutical formulations containing pseudomonic acid” (Beecham Group p.l.c., priority 1982, dated 1985)
